The results in this text go back to US20260027073A1, “USE OF SMALL-MOLECULE COMPOUND HAVING NAPHTHYLAMINE STRUCTURE” (HANGZHOU PHECDAMED CO., LTD., priority 2023, published 2026).

Test [1] relates to Mesenchymal stem cells (MSC) differentiated from normal human pluripotent stem cells (iPSC). Briefly: Senescence of normal human derived mesenchymal stem cells. Format: cell-based. The note with it: 10 μM. As for the experimental part: Mesenchymal stem cells (MSC) differentiated from normal human pluripotent stem cells (iPSC) were taken for culture, and the experiment was divided into three groups: young cells cultured for 6 generations, labeled as Con-Y; senescent cells cultured for 16 generations, labeled as Con-O; and the administration group, to which 10 μM TJ01-013 was added during the process of culture, similarly cultured up to the 16th generation, and labeled as Con-O+TJ01-013, and after the end of the treatment, all cells were placed under the microscope to observe the morphology of the cells, and the percentage of SA-β-gal+ cells was count. The levels of the DNA damage marker γ-H2AX and the heterochromatin modification H3K9me3 after TJ01-013 treatment were detected by immunofluorescence technique (procedure described previously).

For test [2], the system named is CUMS animal model of depression. The test can be described thus: CUMS depression model behavioral tests. The test is classed as in vivo, C57BL/6J mice. As to conditions: Fluoxetine 30 mg/kg. An excerpt:
Depression, also known as depressive disorder, is characterized by significant and long-lasting depressed state of mind as the main clinical feature. The CUMS animal model of depression is a chronic unpredictable animal stress model, which simulates part of the stressor, the external material environmental stimulus, and will cause dysfunctions in the animal organism through different stress stimuli, leading to occurrence of the psychiatric disease depression. […] During this period, carefully observing the status of each mouse. • (6) Basket shaking: Placing the mice in an empty basket and shaking the basket drastically, with the criterion that the mice in the basket are unable to stand firm and sway with the shaking of the basket, for 1 hour. • (7) Olfactory stimulation: Placing anise and other spices in the mice's baskets as a means of olfactory stimulation.
The above seven experiments were conducted randomly during a week as a way to achieve unpredictability with 4 weeks of continuous stimulation.
At the end of the modeling, an open field test experiment was conducted to screen the modeled animals and group the successful modeled animals into five groups: normal group (Control), model control group (Model), positive drug treatment group (Fluoxetine), TJ0113 10 mg/kg treatment group (10 mg/kg), […], TJ0113 30 mg/kg treatment group (30 mg/kg). There were 10 mice in each group, and the administration treatment was administered by gavage, the normal and model control groups were given vehicle treatment, the vehicle was 0.5% CMC-Na, the positive drug fluoxetine hydrochloride was solubilized in saline and administered at a dose of 30 mg/kg, and the TJ0113 vehicle was 0.5% CMC-Na, and administered at a dose of 10 mg/kg and 30 mg/kg, respectively. 4 weeks after the end of the administration, behavioral tests were performed.
• (1) Adaptive feeding: Adaptive feeding with 1% sucrose water and plain water for 2 d before the start of the test, at 1 d, interchanging the sugar water and plain water to avoid positional differences for the animals, and fasting food and water for 1 d after adaption; • (2) Formal test: after fasting food and water, 1% sucrose water and plain water were given to the animals (the initial mass of sugar water and plain water is known), and weighing the remaining mass of sugar water/plain water of each animal after 24 h, and calculating the consumption rates of sugar water A and plain water B; • (3) Data analysis: sugar water preference rate=(A/A+B)×100%.
• (1) adapting to the environment: placing the animals in the test environment for 60 min to adapt to the environment before the test; • (2) Formal test: fixing the rear 1/3 of the mouse tail with tape and suspending on the stand of the experimental apparatus, with the head 15 cm from the bottom; • (3) starting timing camera, and stopping after 6 min, and recording the immobility time of the mice within 4 min; • (4) At the end of the test, using 75% alcohol to wipe the bottom and inner wall of the chamber.
• (1) adapting to the environment: placing the animals in the test environment for 60 min to adapt to the environment before the test; • (2) Formal test: placing the animals to be tested in the middle of the open field, and using the ANY-Maze software to collect the data, the test time is 10 min, and the feces and urine must be removed at the end of each round and disinfected and wiped dry with 75% alcohol; • (3) Analysis of results: total moved distance and average speed during the activity, time spent in the center area and time spent in the corner area.

Consider `O=C(O)C[S+]([O-])c1cc(NS(=O)(=O)c2ccc(Br)cc2)c2ccccc2c1O` (centres unmarked) [I-1], for which, in test [1] (16th generation, vs Con-O, FIG. 51), the “percentage of SA-β-gal-positive cells” value is “significantly decreased”. Further, the “level of DNA damage marker γ-H2AX” value in test [1] (FIG. 52) was “significantly reduced”. In addition, the “expression level of heterochromatin-modified H3K9me3” value in test [1] (FIG. 53) is on record as “restored its expression level to some extent”. In addition, the “average movement speed, open field” value in test [2] (TJ0113 10 mg/kg and 30 mg/kg, FIG. 61) is recorded as “significantly increased”. Besides, the sugar water preference result in test [2] (TJ0113 30 mg/kg, gavage, FIG. 57) was “significantly increased”. Besides, in test [2] (TJ0113 30 mg/kg, FIG. 58), the “time in despair (immobility), tail-hanging experiment” value was “significantly decreased”. Besides, in test [2] (TJ0113 30 mg/kg, FIG. 59), the “distance moved, open field” value is listed as “significantly increased”. Moreover, the “time in the edge area of the open field” value in test [2] (TJ0113 30 mg/kg, FIG. 60) is on record as “significantly decreased”.
